Experimental data published in patent US12433872B2, “Treatment of Acanthamoeba or Balamuthia trophozoites and/or cysts” (GEORGIA STATE UNIVERSITY RESEARCH FOUNDATION, INC., priority 2018, dated 2025).
pIC50: −log10 of the molar value. Read-outs that look alike come from different tables or passages of the source.

Experiments:
Assay type in all cases: cell-based
[1] = tested on: Acanthamoeba castellanii trophozoites; assay: Activity against Acanthamoeba castellanii trophozoites
Method: Two Acanthamoeba species (Acanthamoeba castellanii—ATCC50370 and Acanthamoeba culbertsoni—ATCC30171) were bought from the American Type Culture Collection (ATCC) and one species (Acanthamoeba healyi) was donated from the Centers for Disease Control and Prevention (CDC) for our experimentations. Trophozoites were thawed and grown in 10 mL of a nutrient rich Peptose-Glucose (PG) media. The PG media composition is 83.26 mM Glucose (15 g/L), Protease Peptone (15 g/L, yeast extract is manufactured under controlled conditions to retain its vitamin content and other nutritive values such as free amino acids, no other composition information given), 2.2 mM KH2PO4 (300 mg/L), 2.97 μM Thiamine (1 mg/L), 99.86 μM L-methionine (14.9 mg/L), 4.6 μM Vitamin B12 (83.3 μl of 0.1 mg/mL stock/L) and 68 μM Biotin (83.3 μl of 0.2 mg/mL stock/L). […] One mL/L of the salt solution was added to the media stock prior to autoclaving. All reagents were purchased from Sigma Aldrich except the Glucose which was purchased from Alfa Aesar. The cell pellet was resuspended in a final volume of 10 mL of PG media, cultured in 75 cm^2 coming tissue culture flasks and incubated at 27° C. PG was supplemented with 125 μg of penicillin/streptomycin. Sub-culturing occurred twice per week to allow the continued growth and development of the Acanthamoeba trophozoites. […]

[2] = tested on: Acanthamoeba healyi cysts; assay: Encystation drug susceptibility / excystation viability assay, 30 day recovery, A. healyi cysts; conditions: 720 h, read-out: A. healyi 30 day MCC
Method: (§1) The trophozoites of Acanthamoeba were harvested by mechanical detachment and collected via centrifugation at 4000 rpm at 4° C. for 5 minutes. The trophozoites were washed in 10 mL of Neff's Encystment Media (NEM). NEM composition is 20 mM Tris-HCL [pH 8.8] (2.43 g/L), 100 mM KCL (7.46 g/L), 8 mM MgSO4 (962.96 mg/L), 0.4 mM CaCL2 58.81 mg/L) and 1 mM NaHCO3 (84.01 mg/L) (Neff et al. 1964). All reagents were bought from Sigma Aldrich. Centrifugation of the trophozoites was repeated to ensure any residual growth medium was removed. The pellet was resuspended in a final volume of 15 mL of NEM, cultured in 75 cm^2 corning tissue culture flasks and incubated vertically in a thermal shaker, shaken at 100 rpm at 37° C. for 72 hours to produce fully matured cysts. NEM was supplemented with 250 μg of penicillin/streptomycin. Fresh cysts were produced each time for any experimentation.
(§2) At 72 hours the cysts were harvested using a cell scraper and collected via centrifugation at 4000 rpm at 25° C. for 10 minutes. The cells were washed twice in 10 mL of HyClone™ water, Molecular Biology Grade, and centrifugation was repeated to ensure the removal of any residual NEM. The cell suspension was washed with 0.5% sodium dodecyl sulphate (SDS) to remove any remaining trophozoites and immature cysts. The fully mature cysts were further washed twice with 10 mL of HyClone™ water and 1% NEM, centrifugation was repeated to remove any residue of SDS. The concentration of mature cysts was determined using a haemocytometer and adjusted to 1×10^4 cysts/mL in NEM.
(§3) All test compounds were prepared as 5 mg/mL stock solutions in dimethylsulfoxide (DMSO). All compounds were diluted in NEM, serially diluted in 2-fold dilutions 6 or 11 times, yielding a screening concentration range of 1.56 μg/mL to 50 μg/mL or 48 ng/mL to 50 μg/mL with a final highest screening concentration of 1% DMSO.
(§4) Based on this, a strain specific test period and also a 30 day non-specific recovery time were considered. For the 30 day recovery period, the media was changed 5 times to ensure the contents of wells dis not evaporate and have an effect within the results of the assay.
(§5) 90 μL of 1×10^4 Cysts/ml and 10 μL of experimental compounds from the screening plates were produced according to the protocols above and combined into a Corning clear 96 well treated tissue culture plate. Control wells include cysts in non-drug treated, 1% DMSO, NEM (to be used for negative growth control), NEM Blank, PG blank and cysts in non-drug treated, 1% DMSO, PG (to excyst cells and to be used for positive growth control). The total well volume for all wells was 100 μL. The drug exposed plates were screened at 27° C. for 6 or 24 hours only. At the exposure time point the plates were centrifuged at 4000 rpm at 25° C. for 10 minutes and washed twice with phosphate-buffered saline (PBS) to remove any residual experimental compound.
(§6) Once the plate(s) underwent the Encystation drug susceptibility process, all wells except the negative growth control and NEM blank wells received PG growth medium. All plates were left to recover at 27° C. for the strain specific time period of 5, 9 or 11 days depending on the species of Acanthamoeba. At each of the strain specific time points the plates were removed from incubation and microscopically analysed (qualitatively) for the excystation process for the emergence of excysted viable trophozoites or residual cysts. The presence of excysted trophozoites indicated viable amoebae (non-cystistatic or cysticidal—no effect) and the absence of excystation was considered as cystistatic/cysticidal effects.

[3] = tested on: Balamuthia mandrillaris trophozoites; assay: Activity against Balamuthia mandrillaris trophozoites
Method: Balamuthia mandrillaris trophozoites were thawed and grown in 10 ml of BM-3 medium. […] After autoclaving, complete BM-3 media was produced by the addition of 10% fetal bovine serum and 125 μg of penicillin/streptomycin antibiotics. The table describes all of the compounds and the activity against Balamuthia trophozoites compared to the activity for select Acanthamoeba trophozoites shown in Table 5.

[4] = tested on: Acanthamoeba castellanii (ATCC50370) cysts; assay: Encystation drug susceptibility / excystation viability assay, 30 day recovery, A. castellanii cysts; conditions: ATCC50370, 720 h, read-out: A. castellanii 30 day MCC
Method: as §1, §2, §3, §4, §5, §6

[5] = tested on: Acanthamoeba culbertsoni (ATCC30171) cysts; assay: Encystation drug susceptibility / excystation viability assay, 30 day recovery, A. culbertsoni cysts; conditions: ATCC30171, 720 h, read-out: A. culbertsoni 30 day MCC
Method: as §1, §2, §3, §4, §5, §6

A549 cells = assay: Toxicity to human A549 cells
[6] = read-out: A. cactellanii Trophozoite IC50
[7] = read-out: Acanthamoeba castellanii IC50
[8] = B. mandrillaris, versus pentamidine 29.38 μM
[9] = Balamuthia mandrillaris, read-out: Balamuthia mandrillaris IC50
[10] = Homo sapiens, A549, read-out: A549 cell IC50
[11] = trophozoites, n = 2, Table 6, read-out: Acanthamoeba castellanii IC50
[12] = minimum cysticidal concentration, no recovery up to 30 days
[13] = Balamuthia mandrillaris; trophozoites, n = 2; read-out: Balamuthia mandrillaris IC50
[14] = human A549 cells, read-out: A549 cell IC50

Compound `COc1cc(Oc2c(F)cc(-c3nc4ccc(C(=N)NC(C)C)cc4[nH]3)cc2F)ccc1-c1nc2ccc(C(=N)NC(C)C)cc2[nH]1` [Compound A, 2-(3,5-Difluoro-4-(4-(6-(N-isopropylcarbamimidoyl)-1H-benzo[d]imidazol-2-yl)-3-methoxyphenoxy)phenyl)-N-isopropyl-1H-benzo[d]imidazole-6-carboximidamide] has a pIC50 [1, 6] of 5.92, a pIC50 [1, 7] of 5.92 and an MCC [2] of 7.9 µM. The “times more potent than pentamide as reported in Schuster et al.” value [3, 8] was 48.9, the pIC50 [3, 9] was 6.22 and the pIC50 ([3]; Balamuthia mandrillaris, read-out: IC50 against B. mandrillaris) was 6.22. For the same compound, the MCC [4] was 47.4 µM, the MCC [5] was 7900 nM and the pIC50 (A549 cells; [10]) was 4.49.
`CC(C)NC(=N)c1ccc2nc(-c3cc(F)c(Oc4ccc(-c5nc6ccc(C(=N)NC(C)C)cc6[nH]5)c(Cl)c4)c(F)c3)[nH]c2c1` [Compound B, 2-(2-Chloro-4-(2,6-difluoro-4-(6-(N-isopropylcarbamimidoyl)-1H-benzo[d]imidazol-2-yl)phenoxy)phenyl)-N-isopropyl-1H-benzo[d]imidazole-6-carboximidamide] showed a pIC50 [1, 6] of 6.27, a pIC50 [1, 7] of 6.27 and an MCC [2] of 3.84 µM. For the same compound, the pIC50 [3, 9] was 6.40, the MCC [4] was 9.6 µM and the MCC [5] was 2880 nM. It also gave a pIC50 (A549 cells; [10]) of 4.77.
`CC(C)NC(=N)c1ccc2nc(-c3cc(F)c(Oc4ccc(-c5nc6ccc(C(=N)NC(C)C)cc6[nH]5)c(F)c4)c(F)c3)[nH]c2c1` [Compound C, 2-(3,5-Difluoro-4-(3-fluoro-4-(6-(N-isopropylcarbamimidoyl)-1H-benzo[d]imidazol-2-yl)phenoxy)phenyl)-N-isopropyl-1H-benzo[d]imidazole-6-carboximidamide] was tested, and the pIC50 [1, 6] was 5.91, the pIC50 [1, 7] was 5.91 and the MCC [2] was 23.1 µM. The pIC50 [3, 9] was 6.31, the MCC [4] was 23.1 µM and the MCC [5] was 11600 nM. The pIC50 (A549 cells; [10]) was 4.46.
With `CC(C)NC(=N)c1ccc2nc(-c3ccc(Oc4ccc(-c5nc6ccc(C(=N)NC(C)C)cc6[nH]5)c(Br)c4)cc3Br)[nH]c2c1` [Compound D, 2,2′-(Oxybis(2-bromo-4,1-phenylene))bis(N-isopropyl-1H-benzo[d]imidazole-6-carboximidamide)] the pIC50 [1, 6] was 6.51, the pIC50 [1, 7] was 6.51 and the MCC [2] was 3.4 µM. The pIC50 [3, 9] was 7.00, the MCC [4] was 3.4 µM and the MCC [5] was 1270 nM. It also gave a pIC50 (A549 cells; [10]) of 5.38.
Work on `CC(C)NC(=N)c1ccc2nc(-c3ccc(Oc4ccc(-c5nc6ccc(C(=N)NC(C)C)cc6[nH]5)c(Br)c4)cc3F)[nH]c2c1` [Compound E, 2-(2-Bromo-4-(3-fluoro-4-(6-(N-isopropylcarbamimidoyl)-1H-benzo[d]imidazol-2-yl)phenoxy)phenyl)-N-isopropyl-1H-benzo[d]imidazole-6-carboximidamide] yielded a pIC50 [1, 6] of 6.66, a pIC50 [1, 7] of 6.11 and an MCC [2] of 1.83 µM. The pIC50 [3, 9] was 6.96, the MCC [4] was 2.75 µM and the MCC [5] was 1830 nM. For the same compound, the pIC50 (A549 cells; [10]) was 5.42.
With `CC(C)NC(=N)c1ccc2nc(-c3cc(F)c(Oc4ccc(-c5nc6ccc(C(=N)NC(C)C)cc6[nH]5)c(Br)c4)c(F)c3)[nH]c2c1` [Compound F, 2-(2-Bromo-4-(2,6-difluoro-4-(6-(N-isopropylcarbamimidoyl)-1H-benzo[d]imidazol-2-yl)phenoxy)phenyl)-N-isopropyl-1H-benzo[d]imidazole-6-carboximidamide] the pIC50 [1, 6] was 6.23, the pIC50 [1, 7] was 6.23 and the MCC [2] was 3.52 µM. It also gave a pIC50 [3, 9] of 6.23, an MCC [4] of 5.29 µM and an MCC [5] of 5290 nM. It also gave a pIC50 (A549 cells; [10]) of 4.86.
`CC(C)NC(=N)c1ccc2nc(-c3ccc(Oc4cc(F)c(-c5nc6ccc(C(=N)NC(C)C)cc6[nH]5)c(F)c4)cc3Br)[nH]c2c1` [Compound G, 2-(2-Bromo-4-(3,5-difluoro-4-(6-(N-isopropylcarbamimidoyl)-1H-benzo[d]imidazol-2-yl)phenoxy)phenyl)-N-isopropyl-1H-benzo[d]imidazole-6-carboximidamide] was tested, and the pIC50 [1, 6] was 6.59, the pIC50 [1, 7] was 6.59 and the MCC [2] was 1.75 µM. The pIC50 [3, 9] was 6.96, the MCC [4] was 1.75 µM and the MCC [5] was 1750 nM. For the same compound, the pIC50 (A549 cells; [10]) was 5.22.
Compound `CC(C)NC(=N)c1ccc2nc(-c3ccc(Oc4ccc(-c5nc6ccc(C(=N)NC(C)C)cc6[nH]5)c(F)c4F)cc3Br)[nH]c2c1` [Compound H, 2-(2-Bromo-4-(2,3-difluoro-4-(6-(N-isopropylcarbamimidoyl)-1H-benzo[d]imidazol-2-yl)phenoxy)phenyl)-N-isopropyl-1H-benzo[d]imidazole-6-carboximidamide] has a pIC50 [1, 6] of 6.57, a pIC50 [1, 7] of 6.57 and an MCC [2] of 1.88 µM. For the same compound, the pIC50 [3, 9] was 7.00, the MCC [4] was 1.88 µM and the MCC [5] was 1880 nM. The pIC50 (A549 cells; [10]) was 5.51.
In the case of `CC(C)NC(=N)c1ccc2nc(-c3ccc(Oc4ccc(-c5nc6ccc(C(=N)NC(C)C)cc6[nH]5)cc4F)cc3)[nH]c2c1` [Compound I, 2-(3-Fluoro-4-(4-(6-(N-isopropylcarbamimidoyl)-1H-benzo[d]imidazol-2-yl)phenoxy)phenyl)-N-isopropyl-1H-benzo[d]imidazole-6-carboximidamide], the pIC50 [1, 11] was 6.15, the MCC [2, 12] was 4.2 µM and the “times more potent than pentamide as reported in Schuster et al.” value [3, 8] was 587.6. It also gave a pIC50 ([3]; Balamuthia mandrillaris; read-out: IC50 against B. mandrillaris) of 7.30, a pIC50 [3, 13] of 7.30 and an MCC [4, 12] of 4.2 µM. The MCC [5, 12] was 8410 nM and the pIC50 (A549 cells; [14]) was 5.46.
For `CC(C)NC(=N)c1ccc2nc(-c3ccc(Oc4ccc(-c5nc6ccc(C(=N)NC(C)C)cc6[nH]5)c(Br)c4)c(Br)c3)[nH]c2c1` [Compound R, 2-(2-Bromo-4-(2-bromo-4-(6-(N-isopropylcarbamimidoyl)-1H-benzo[d]imidazol-2-yl)phenoxy)phenyl)-N-isopropyl-1H-benzo[d]imidazole-6-carboximidamide], the pIC50 [1, 11] was 6.26, the MCC [2, 12] was 3.56 µM and the pIC50 [3, 13] was 6.70. The MCC [4, 12] was 2.66 µM, the MCC [5, 12] was 2660 nM and the pIC50 (A549 cells; [14]) was 5.38.
